Experimental findings from patent publication EP1537858A1, “Drug delivery vehicles and uses thereof” (Vectron Therapeutics AG, priority 2003, dated 2005) are described below.

Data set [1] can be described thus: Pharmacokinetics of doxorubicin in blood after i.v. injection (HPLC). The data set is classed as in vivo. The conditions noted are these: i.v. tail vein, nude mice, blood doxorubicin by HPLC. How it is done:
AVE9-dox and AVE95-dox were injected i.v. into the tail veins of nude mice and blood concentration of doxorubicin was determined by HPLC at varying time points. In this experiment we included unencapsulated doxorubicin as well as doxorubicin encapsulated into pegylated "stealth liposomes" (Doxil®). Compared to AVE9-dox AVE95-dox caused a prolonged serum residence time of doxorubicin (50% value of 11 min for AVE9-dox versus 23 min for AVE95-dox). Unencapsulated dox was rapidly cleared from the circulation (50% value = < 3 min). In contrast, after injection of Doxil® more than 50% of initial doxorubicin was present in the blood after 6 hours (Fig. 4). […] Doxorubicin concentrations in the liver and spleen were increased 3-fold after applying AVE95-dox compared to free doxorubicin.

The subject of data set [2] is C26 murine colon carcinoma. Briefly: Pharmacodynamics of doxorubicin liposomes in C26 tumor model. The class given is in vivo, nude mice. How it is done:
For further studies pharmacodynamic experiments in a C26 murine colon carcinoma model were performed. For this purpose tumor cells were injected subcutaneously into nude mice. After tumors had reached a size of approximately 50-100 mm^3 tumor-bearing mice were treated with doxorubicin-loaded liposomes injecting a doxorubicin dose of 4 mg/kg body weight at days 1, 3 and 6.
In a first experiment AVE9-dox and AVE95-dox (see example 10) were compared to unencapsulated doxorubicin. In this experiment we observed reduced tumor growth and a prolonged survival time for animals treated with AVE95-dox compared to animals treated with AVE9-dox or free doxorubicin. […] The difference between free doxorubicin and AVE95-dox at day 12 was statistically significant (p = 0.05). This was also reflected by the mean survival time which was 20 days for AVE95-dox treated animals, 16 days for AVE9-dox treated animals, 14 days for doxorubicin-treated animals, and 12 days for untreated animals.
In a second experiment free doxorubicin was compared to AVE95-dox, when administered either at 4 or at 8 mg/kg body weight to C26-tumor-bearing mice. […] In contrast, tumor growth was further reduced using 8 mg/kg AVE95-dox compared to […] AVE95-dox.
In a third experiment AVE95-dox was compared to Doxil® for the treatment of C26 tumors applying a dose of 4 mg/kg.
In a final set of experiments, AVE95-dox liposomes were compared to a AVE95-based formulation containing varying sphingomyelin concentrations. Firstly, AVE95-dox was compared to the same formulation in which sphingomyelin was substituted by phosphatidylcholine (AVE95-0SM-dox). […] Secondly, AVE95-dox was compared to liposomes consisting of 50 mol% cholesterol, 30 mol% sphingomyelin and 20 mol% phosphatidylcholine. Thus, this formulation contained the same cholesterol concentration but approximately twice as much sphingomyelin as AVE95 liposomes.

Data set [3] deals with C26 murine colon carcinoma. Briefly: Pharmacodynamics of mitoxantrone liposomes in C26 tumor model. The settings on record: mitoxantrone dose of 4 mg/kg at days 0, 2 and 5. The class given is in vivo, nude mice. How it is done: Efficacy of AVE95-MRX was analyzed in a C26 murine colon carcinoma model. For this purpose tumor cells were injected subcutaneously into nude mice. After tumors had reached a size of approximately 50-100 mm^3, tumor-bearing mice were treated with mitoxantrone-loaded liposomes injecting a mitoxantrone dose of […] or 4 mg/kg body weight at days 0, 2 and 5. Unencapsulated mitoxantrone was included in these experiments. […] However, at this dose tumor growth was further reduced for AVE95-encapsulated mitoxantrone compared to free mitoxantrone (Fig. 9). This improved efficacy compared to free mitoxantrone was also observed at a mitoxantrone concentration of […].

A short description of data set [4]: Pharmacokinetics and organ accumulation of mitoxantrone after i.v. injection (HPLC). The data set is classed as in vivo. The settings on record: i.v. tail vein, nude mice, blood mitoxantrone by HPLC. The protocol: AVE95-MXR liposomes were injected i.v. into the tail veins of nude mice and blood concentration of mitoxantrone was determined by HPLC at varying time points. In this experiment we included unencapsulated mitoxantrone. AVE95-MXR caused a prolonged serum residence time of mitoxantrone (50% value = 110 min) compared to unencapsulated mitoxantrone which was rapidly cleared from circulation (50% value = < 3 min) (Fig. 8). […] Mitoxantrone concentrations in the liver and spleen were similar to free mitoxantrone.

For the molecule `COc1cccc2c1C(=O)c1c(O)c3c(c(O)c1C2=O)C[C@@](O)(C(=O)CO)C[C@@H]3O[C@H]1C[C@H](N)[C@H](O)[C@H](C)O1` [doxorubicin], the “50% value (serum residence time of doxorubicin)” value in data set [1] is given as below 3 min. For the same molecule, in data set [2] (4 mg/kg at days 1, 3 and 6, first experiment), the “tumor growth compared to untreated control animals” value is “reduced tumor growth compared to untreated control animals”. Moreover, the lethality entry in data set [2] (at 8 mg/ml (so in the source), C26-tumor-bearing mice) is given as “increased lethality”. The mean survival time in data set [2] (doxorubicin 4 mg/kg body weight at days 1, 3 and 6, first experiment) worked out at 14 days. For the same molecule, the “tumor growth at 8 mg/kg compared to 4 mg/kg” value in data set [2] (second experiment, 4 or 8 mg/kg body weight) is listed as “No differences in tumor growth”.
In the case of `O=C1c2c(O)ccc(O)c2C(=O)c2c(NCCNCCO)ccc(NCCNCCO)c21` [mitoxantrone, Mitoxantrone], the “inhibition of tumor growth” value in data set [3] is on record as “strong inhibition of tumor growth”. The “50% value (serum residence time of mitoxantrone)” value in data set [4] is reported as below 3 min.
